The compounds below were run against Plasma kallikrein (Homo sapiens, UniProt P03952) (assay: Inhibition of kallikrein (unknown origin) using H-Pro-Phe-Arg-AMC as substrate incubated for 1 hr by fluorescence based analysis).
Sequence of Plasma kallikrein (P03952 20-390 limits assumed): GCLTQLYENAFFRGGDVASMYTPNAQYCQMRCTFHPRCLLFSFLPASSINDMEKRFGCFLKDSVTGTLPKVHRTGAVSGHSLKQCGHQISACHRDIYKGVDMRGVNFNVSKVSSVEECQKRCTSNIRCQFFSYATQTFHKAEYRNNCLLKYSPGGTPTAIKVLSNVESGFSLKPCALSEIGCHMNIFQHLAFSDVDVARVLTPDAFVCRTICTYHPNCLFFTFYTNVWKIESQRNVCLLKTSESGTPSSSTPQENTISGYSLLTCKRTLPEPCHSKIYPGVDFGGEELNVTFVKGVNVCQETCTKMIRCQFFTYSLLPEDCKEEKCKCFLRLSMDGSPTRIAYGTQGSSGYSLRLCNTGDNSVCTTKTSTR
Sequence of Plasma kallikrein (P03952 391-638 limits assumed): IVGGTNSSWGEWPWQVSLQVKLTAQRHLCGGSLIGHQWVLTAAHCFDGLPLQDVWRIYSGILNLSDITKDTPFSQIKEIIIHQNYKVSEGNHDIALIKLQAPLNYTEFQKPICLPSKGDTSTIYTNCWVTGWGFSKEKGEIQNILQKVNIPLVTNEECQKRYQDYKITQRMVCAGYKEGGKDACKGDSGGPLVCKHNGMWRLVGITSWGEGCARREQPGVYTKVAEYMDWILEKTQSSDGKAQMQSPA
`Cc1[nH]nc2c1CC[C@H]2NC(=O)c1cnn(Cc2ccc(N3CC4CC4C3)nc2C(F)F)c1` (stereo partly specified) gave an IC50 of 800 pM. `Cc1[nH]nc2c1CC[C@H]2NC(=O)c1cn(Cc2ccc(N3CC4(CC4)C3)nc2C(F)F)cn1` was tested, and the IC50 was 500 pM. `Cc1[nH]nc2c1CC[C@H]2NC(=O)c1cn(Cc2ccc(N3CC4C(C3)C4(F)F)nc2C(F)F)cn1` (stereo partly specified) gave an IC50 of 600 pM. For `Cc1[nH]nc2c1CC[C@H]2NC(=O)c1cn(Cc2ccc(N3CC4(CC4)C3)nc2C(F)F)nn1`, the IC50 was 500 pM. Work on `Cc1[nH]nc2c1CC[C@H]2NC(=O)c1cn(Cc2ccc(N3CC4CC4C3)nc2C(F)F)cn1` (stereo partly specified) yielded an IC50 of 700 pM. Work on `Cc1[nH]nc2c1CC[C@H]2NC(=O)c1cnn(Cc2ccc(N3CC4C(C3)C4(F)F)nc2C(F)F)c1` (stereo partly specified) yielded an IC50 of 800 pM.
